This experiment has as its target T1, Cbl-b (Homo sapiens, UniProt Q13191).
T1 construct: Cbl-b-HiBit KI Jurkat Cells were purchased from Promega; host or cells: Cbl-b-HiBiT knock-in Jurkat cells
Put plainly: Cbl-b Degradation Method B (Nano-Glo HiBiT lytic detection). The format is cell-based. To be noted: Cbl-b-HiBit KI Jurkat Cells, incubated at least 6-24 hours; for DC50: half maximal degradation, read-out: Cbl-b Degredation Method B IC50; for Dmax: maximum degradation observed, read-out: Cbl-b Degredation Method B Dmax (%). The method in brief: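 An 11-point, 3-fold compound dilution was applied for 6-24 hours to Jurkat cells carrying HiBiT-tagged endogenous Cbl-b. Lytic HiBiT luminescence quantified residual protein. Outputs are DC50 and Dmax relative to DMSO control.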
Background: The HiBiT peptide binds its large partner to form an active luciferase.

SMILES strings stand for the structures. Some results are limits rather than exact numbers.

As a reminder, the Dmax is the greatest extent of degradation seen.

T1 sequence (Q13191 whole entry): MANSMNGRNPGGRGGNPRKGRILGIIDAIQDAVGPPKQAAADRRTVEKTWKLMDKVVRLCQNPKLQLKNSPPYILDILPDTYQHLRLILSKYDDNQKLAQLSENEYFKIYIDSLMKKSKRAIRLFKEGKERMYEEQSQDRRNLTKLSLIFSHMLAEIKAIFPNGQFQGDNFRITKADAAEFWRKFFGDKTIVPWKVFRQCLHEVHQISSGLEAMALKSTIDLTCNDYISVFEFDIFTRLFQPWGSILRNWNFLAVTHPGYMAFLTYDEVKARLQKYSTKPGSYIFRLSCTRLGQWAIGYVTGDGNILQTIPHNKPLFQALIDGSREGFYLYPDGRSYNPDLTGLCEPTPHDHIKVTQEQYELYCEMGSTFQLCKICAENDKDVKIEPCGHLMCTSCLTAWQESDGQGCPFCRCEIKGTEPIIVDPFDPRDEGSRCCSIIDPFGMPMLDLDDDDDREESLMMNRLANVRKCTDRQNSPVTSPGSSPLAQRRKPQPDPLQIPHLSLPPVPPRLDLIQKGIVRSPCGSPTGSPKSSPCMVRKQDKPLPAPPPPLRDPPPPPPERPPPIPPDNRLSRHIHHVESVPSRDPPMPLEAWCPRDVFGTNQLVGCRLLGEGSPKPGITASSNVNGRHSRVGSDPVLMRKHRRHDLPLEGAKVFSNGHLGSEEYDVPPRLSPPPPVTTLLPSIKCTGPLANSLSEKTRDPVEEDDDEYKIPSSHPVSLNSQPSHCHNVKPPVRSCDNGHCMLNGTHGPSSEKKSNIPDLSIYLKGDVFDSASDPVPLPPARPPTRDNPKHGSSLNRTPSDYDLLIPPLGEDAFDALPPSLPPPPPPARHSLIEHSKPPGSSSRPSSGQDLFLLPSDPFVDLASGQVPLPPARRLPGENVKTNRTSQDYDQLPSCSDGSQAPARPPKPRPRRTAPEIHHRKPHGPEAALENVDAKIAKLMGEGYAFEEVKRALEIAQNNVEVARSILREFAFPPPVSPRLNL

On to `CC1c2nc(N3CCC(OC4CCC(CN5CC6CCC(C5)N6c5cc6c(c(C(F)(F)F)c5)CN(c5cccc(C7(Cc8nncn8C)CC(C#N)C7)c5)C6=O)CC4)CC3)ccc2C(=O)N1C1CCC(=O)NC1=O` (centres unmarked) [Example 183, (1r,3r)-3-[(4-methyl-4H-1,2,4-triazol-3-yl)methyl]-3-{3-[1-oxo-6-(3-{[(1r,4r)-4-({1-[6-(2,6-dioxopiperidin-3-yl)-7-methyl-5-oxo-5H,6H,7H-pyrrolo[3,4-b]pyridin-2-yl]piperidin-4-yl}oxy)cyclohexyl]methyl}-3,8-diazabicyclo[3.2.1]octan-8-yl)-4-(trifluoromethyl)-2,3-dihydro-1H-isoindol-2-yl]phenyl}cyclobutane-1-carbonitrile], for which the DC50 is 5 to 50 nM and the Dmax is below 35%.

On to `Cc1cc(N2CCC(CN3CCC4(CC3)CN(c3cc5c(c(C(F)(F)F)c3)CN(c3cccc(C6(Cc7nncn7C)CC6)c3)C5=O)C4)CC2)c(F)c2c1C(=O)N(C1CCC(=O)NC1=O)C2` (centres unmarked) [Example 191, 3-{4-fluoro-7-methyl-5-[4-({2-[2-(3-{1-[(4-methyl-4H-1,2,4-triazol-3-yl)methyl]cyclopropyl}phenyl)-3-oxo-7-(trifluoromethyl)-2,3-dihydro-1H-isoindol-5-yl]-2,7-diazaspiro[3.5]nonan-7-yl}methyl)piperidin-1-yl]-1-oxo-2,3-dihydro-1H-isoindol-2-yl}piperidine-2,6-dione], for which the DC50 is below 5 nM and the Dmax is 35 to 70%. Consider `CC(C)n1c(=O)n(C2CCC(=O)NC2=O)c2ccc(N3CCC(CN4CCC5(CC4)CN(c4cc6c(c(C(F)(F)F)c4)CN(c4cccc([C@]7(Cc8nncn8C)C[C@@H](C#N)C7)c4)C6=O)C5)CC3)cc21` (some centres unmarked) [Example 192, (1r,3r)-3-(3-{6-[7-({1-[1-(2,6-dioxopiperidin-3-yl)-2-oxo-3-(propan-2-yl)-2,3-dihydro-1H-1,3-benzodiazol-5-yl]piperidin-4-yl}methyl)-2,7-diazaspiro[3.5]nonan-2-yl]-1-oxo-4-(trifluoromethyl)-2,3-dihydro-1H-isoindol-2-yl}phenyl)-3-[(4-methyl-4H-1,2,4-triazol-3-yl)methyl]cyclobutane-1-carbonitrile], for which the DC50 is below 5 nM and the Dmax is 35 to 70%.

Turning to `O=C1CCC(N2Cc3c(ccc(N4CCC(O[C@H]5CC[C@H](CN6CCN(Cc7cc8c(c(C(F)(F)F)c7)CN(c7cccc(C9(Cc%10nnc[nH]%10)COC9)c7)C8=O)CC6)CC5)CC4)c3F)C2=O)C(=O)N1` (some centres unmarked) [Example 197, 3-[4-fluoro-1-oxo-5-(4-{[(1r,4r)-4-[(4-{[3-oxo-2-(3-{3-[(4H-1,2,4-triazol-3-yl)methyl]oxetan-3-yl}phenyl)-7-(trifluoromethyl)-2,3-dihydro-1H-isoindol-5-yl]methyl}piperazin-1-yl)methyl]cyclohexyl]oxy}piperidin-1-yl)-2,3-dihydro-1H-isoindol-2-yl]piperidine-2,6-dione], the DC50 is above 500 nM. In the case of `Cn1cnnc1C[C@]1(c2cccc(N3Cc4c(cc(CN5CCN(C[C@H]6CC[C@H](OC7CCN(c8cccc(C(=O)NC9CCC(=O)NC9=O)c8)CC7)CC6)CC5)cc4C(F)(F)F)C3=O)c2)C[C@H](C#N)C1` (some centres unmarked) [Example 198, N-(2,6-dioxopiperidin-3-yl)-3-(4-{[(1r,4r)-4-({4-[(3-oxo-2-{3-[(1r,3r)-3-cyano-1-[(4-methyl-4H-1,2,4-triazol-3-yl)methyl]cyclobutyl]phenyl}-7-(trifluoromethyl)-2,3-dihydro-1H-isoindol-5-yl)methyl]piperazin-1-yl}methyl)cyclohexyl]oxy}piperidin-1-yl)benzamide], the DC50 was 5 to 50 nM and the maximal degradation (Dmax) is below 35%. Take `Cn1cnnc1C[C@]1(c2cccc(N3Cc4c(cc(CN5CCN(C[C@H]6CC[C@H](OC7CCN(c8ccnc(C(=O)NC9CCC(=O)NC9=O)c8)CC7)CC6)CC5)cc4C(F)(F)F)C3=O)c2)C[C@H](C#N)C1` (some centres unmarked) [Example 200, N-(2,6-dioxopiperidin-3-yl)-4-(4-{[(1r,4r)-4-({4-[(3-oxo-2-{3-[(1r,3r)-3-cyano-1-[(4-methyl-4H-1,2,4-triazol-3-yl)methyl]cyclobutyl]phenyl}-7-(trifluoromethyl)-2,3-dihydro-1H-isoindol-5-yl)methyl]piperazin-1-yl}methyl)cyclohexyl]oxy}piperidin-1-yl)pyridine-2-carboxamide]: the DC50 was above 500 nM. Same read-out and setting: to `Cn1cnnc1C[C@]1(c2cccc(N3Cc4c(cc(CN5CCN(C[C@H]6CC[C@H](OC7CCN(c8ccc(C9CCC(=O)NC9=O)c(F)c8)CC7)CC6)CC5)cc4C(F)(F)F)C3=O)c2)C[C@H](C#N)C1` (some centres unmarked) [Example 201, (1r,3r)-3-[(4-methyl-4H-1,2,4-triazol-3-yl)methyl]-3-(3-{1-oxo-6-[(4-{[(1r,4r)-4-({1-[4-(2,6-dioxopiperidin-3-yl)-3-fluorophenyl]piperidin-4-yl}oxy)cyclohexyl]methyl}piperazin-1-yl)methyl]-4-(trifluoromethyl)-2,3-dihydro-1H-isoindol-2-yl}phenyl)cyclobutane-1-carbonitrile] belongs above 500 nM; to `Cn1cnnc1C[C@]1(c2cccc(N3Cc4c(cc(CN5CCN(C[C@H]6CC[C@H](OC7CCN(c8ccc(F)c(C(=O)NC9CCC(=O)NC9=O)c8)CC7)CC6)CC5)cc4C(F)(F)F)C3=O)c2)C[C@H](C#N)C1` (some centres unmarked) [Example 202, N-(2,6-dioxopiperidin-3-yl)-2-fluoro-5-(4-{[(1r,4r)-4-({4-[(3-oxo-2-{3-[(1r,3r)-3-cyano-1-[(4-methyl-4H-1,2,4-triazol-3-yl)methyl]cyclobutyl]phenyl}-7-(trifluoromethyl)-2,3-dihydro-1H-isoindol-5-yl)methyl]piperazin-1-yl}methyl)cyclohexyl]oxy}piperidin-1-yl)benzamide], above 500 nM; to `Cn1cnnc1C[C@]1(c2cccc(N3Cc4c(cc(CN5CCN(C[C@H]6CC[C@H](OC7CCN(c8ccc(C9CCC(=O)NC9=O)cc8)CC7)CC6)CC5)cc4C(F)(F)F)C3=O)c2)C[C@H](C#N)C1` (some centres unmarked) [Example 206, (1r,3r)-3-[(4-methyl-4H-1,2,4-triazol-3-yl)methyl]-3-(3-{1-oxo-6-[(4-{[(1r,4r)-4-({1-[4-(2,6-dioxopiperidin-3-yl)phenyl]piperidin-4-yl}oxy)cyclohexyl]methyl}piperazin-1-yl)methyl]-4-(trifluoromethyl)-2,3-dihydro-1H-isoindol-2-yl}phenyl)cyclobutane-1-carbonitrile], above 500 nM. Turning to `Cn1cnnc1CC1(c2cccc(-n3cc4ccc(CN5CCN(C[C@H]6CC[C@H](OC7CCN(c8ccc9c(c8F)CN(C8CCC(=O)NC8=O)C9=O)CC7)CC6)CC5)cc4n3)c2)COC1` (some centres unmarked) [Example 207, 3-[4-fluoro-1-oxo-5-(4-{[(1r,4r)-4-[(4-{[2-(3-{3-[(4-methyl-4H-1,2,4-triazol-3-yl)methyl]oxetan-3-yl}phenyl)-2H-indazol-6-yl]methyl}piperazin-1-yl)methyl]cyclohexyl]oxy}piperidin-1-yl)-2,3-dihydro-1H-isoindol-2-yl]piperidine-2,6-dione], the DC50 was above 500 nM. The same measure, in the same setting: to `Cn1cnnc1C[C@]1(c2cccc(N3Cc4c(cc(CN5CCN(C[C@H]6CC[C@H](OC7CCN(c8ccc(C9CCC(=O)NC9=O)cn8)CC7)CC6)CC5)cc4C(F)(F)F)C3=O)c2)C[C@H](C#N)C1` (some centres unmarked) [Example 210, (1r,3r)-3-[(4-methyl-4H-1,2,4-triazol-3-yl)methyl]-3-(3-{1-oxo-6-[(4-{[(1r,4r)-4-({1-[5-(2,6-dioxopiperidin-3-yl)pyridin-2-yl]piperidin-4-yl}oxy)cyclohexyl]methyl}piperazin-1-yl)methyl]-4-(trifluoromethyl)-2,3-dihydro-1H-isoindol-2-yl}phenyl)cyclobutane-1-carbonitrile] belongs above 500 nM; to `Cn1cnnc1C[C@]1(c2cccc(N3Cc4c(cc(CN5CCN(C[C@H]6CC[C@H](OC7CCN(c8ccc(C9CCC(=O)NC9=O)nc8)CC7)CC6)CC5)cc4C(F)(F)F)C3=O)c2)C[C@H](C#N)C1` (some centres unmarked) [Example 213, (1r,3r)-3-[(4-methyl-4H-1,2,4-triazol-3-yl)methyl]-3-(3-{1-oxo-6-[(4-{[(1r,4r)-4-({1-[6-(2,6-dioxopiperidin-3-yl)pyridin-3-yl]piperidin-4-yl}oxy)cyclohexyl]methyl}piperazin-1-yl)methyl]-4-(trifluoromethyl)-2,3-dihydro-1H-isoindol-2-yl}phenyl)cyclobutane-1-carbonitrile], above 500 nM.

`CC1c2nc(N3CCC(O[C@H]4CC[C@H](CN5CCN(Cc6cc(C(F)(F)F)c7cn(-c8cccc(C9(Cc%10nncn%10C)COC9)c8)nc7c6)CC5)CC4)CC3)ccc2C(=O)N1C1CCC(=O)NC1=O` (some centres unmarked) [Example 216, 3-[7-methyl-5-oxo-2-(4-{[(1r,4r)-4-[(4-{[2-(3-{3-[(4-methyl-4H-1,2,4-triazol-3-yl)methyl]oxetan-3-yl}phenyl)-4-(trifluoromethyl)-2H-indazol-6-yl]methyl}piperazin-1-yl)methyl]cyclohexyl]oxy}piperidin-1-yl)-5H,6H,7H-pyrrolo[3,4-b]pyridin-6-yl]piperidine-2,6-dione]: the DC50 was below 5 nM and the Dmax is below 35%. As to `CC1c2nc(N3CCC(O[C@H]4CC[C@@H](CN5C[C@@H]6C[C@H]5CN6Cc5cc6c(c(C(F)(F)F)c5)CN(c5cccc(C7(Cc8nncn8C)CC7)c5)C6=O)CC4)CC3)ccc2C(=O)N1C1CCC(=O)NC1=O` (stereo partly drawn) [Example 218, 3-[7-methyl-5-oxo-2-(4-{[(1r,4r)-4-{[(1S,4S)-5-{[2-(3-{1-[(4-methyl-4H-1,2,4-triazol-3-yl)methyl]cyclopropyl}phenyl)-3-oxo-7-(trifluoromethyl)-2,3-dihydro-1H-isoindol-5-yl]methyl}-2,5-diazabicyclo[2.2.1]heptan-2-yl]methyl}cyclohexyl]oxy}piperidin-1-yl)-5H,6H,7H-pyrrolo[3,4-b]pyridin-6-yl]piperidine-2,6-dione], the DC50 was in the range of 5 to 50 nM and the Dmax fell in the range of 35 to 70%.

(Values after US20260184710A1, “CASITAS B-LINEAGE LYMPHOMA PROTOONCOGENE B (CBL-B) DEGRADING COMPOUNDS AND ASSOCIATED METHODS OF USE” (Arvinas Operations, Inc., priority 2022, published 2026).)
